{"source": "patent US20260240810A1", "about": "“COMPOSITIONS AND METHODS FOR REDUCING ADVERSE SIDE EFFECTS IN CANCER TREATMENT” (priority 2022, published 2026)", "key": {"hemoglobin": {"molecular_target": "T1, hemoglobin (Homo sapiens, UniProt P68871)", "T1 construct": "blood not pooled from 3 individual male humans; from tissue; host or cells: whole blood of 3 individual male humans", "T1 sequence (P68871 2-147 limits assumed)": "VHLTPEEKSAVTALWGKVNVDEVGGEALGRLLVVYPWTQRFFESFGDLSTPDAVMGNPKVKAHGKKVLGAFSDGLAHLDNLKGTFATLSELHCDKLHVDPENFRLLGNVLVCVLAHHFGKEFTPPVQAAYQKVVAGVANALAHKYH", "T1 sequence (P69905 2-142 partner limits assumed)": "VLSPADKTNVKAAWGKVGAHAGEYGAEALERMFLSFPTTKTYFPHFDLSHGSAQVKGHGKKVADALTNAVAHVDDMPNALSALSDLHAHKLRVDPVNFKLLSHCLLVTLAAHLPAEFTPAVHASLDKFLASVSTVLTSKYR", "assay": "14C-RRx-001 binding to hemoglobin in blood", "details": "blood of rats, dogs, monkeys, humans; liquid scintillation counter", "experimental": "^14C-RRx-001 (1 μM and 20 μM) was incubated at a temperature of 37° C. for a time period of 30 minutes with blood pooled from 3 male Sprague Dawley rats, 3 male beagle dogs, and 2 male cynomolgus monkeys, and blood not pooled from 3 individual male humans. […] The range of binding to the 3 different human hemoglobin varied from 24% to 34%."}, "[1]": {"assay": "Repeated-dose toxicity study in rats", "type": "in vivo", "details": "3 times/week up to 4 weeks", "experimental": "Repeated-dose toxicity studies of RRx-001 (3 times/week up to 4 weeks in duration) were conducted in rats at dose levels of 12 mg/kg, 20.1 mg/kg, and 30 mg/kg per day and in dogs at dose levels of 4 mg/kg, 8 mg/kg, and 12 mg/kg per day (due to clinical signs, the 8 mg/kg and 12 mg/kg doses were reduced to 3 mg/kg and 5 mg/kg on Day 4). The no observed adverse effect level was <12 mg/kg in rats and 5 mg/kg in dogs."}, "[2]": {"test_system": "CD2F1 mice, lethal total body irradiation", "assay": "Survival after lethal total body irradiation", "type": "in vivo", "experimental": "Mice were treated with vehicle or 10 mg/kg RRx-001 intraperitoneally 24 hours prior to irradiation (9.35 Gy delivered at 0.6 Gy/min).\nCD2F1 mice were treated with lethal dose 70/30 whole body irradiation dose of 9.35 Gy at 0.6 Gy/min using a ^60Co source. Twenty-four hours prior to irradiation, all mice were intraperitoneally injected with either 10 mg/kg RRx-001 or the vehicle control (5% dimethyl sulfoxide in sterile water)."}, "[3]": {"details": "10 mg/kg 24 hours prior to lethal total body irradiation, vs vehicle control"}}, "data": [{"smiles": "O=C(CBr)N1CC([N+](=O)[O-])([N+](=O)[O-])C1", "note": "[RRx-001, 2-bromo-1-(3,3-dinitroazetidin-1-yl) ethan-1-one]", "values": [{"measurement": "partitioning of radioactivity in blood", "setting": "hemoglobin", "result": "highly partition into red blood cells and covalently bind to hemoglobin"}, {"measurement": "no observed adverse effect level", "setting": "[1]", "result": "< 12", "unit": "mg/kg"}, {"measurement": "increase in mean survival time", "setting": "[2]; [3]", "result": 7, "unit": "days"}, {"measurement": "increase in survival", "setting": "[2]; [3]", "result": 33.4, "unit": "%"}, {"measurement": "Survival over 30 days post-exposure", "setting": "[2]; 10 mg/kg intraperitoneally 24 hours prior to 9.35 Gy at 0.6 Gy/min", "result": 67, "unit": "%"}, {"measurement": "reduction in the 30-day death risk", "setting": "[2]; 1 dose of 10 mg/kg 24 hours prior to 9.35 Gy, vs vehicle control", "result": "~33.4", "unit": "%"}]}]}
